Source: ChEMBL document CHEMBL3792292, “Development of a potent and selective FLT3 kinase inhibitor by systematic expansion of a non-selective fragment-screening hit” (Bioorg Med Chem Lett, 2016)

Experiments:
[1] = biological target: T1, Interleukin-1 receptor-associated kinase 4 (Homo sapiens) (UniProt Q9NWZ3); experiment: Inhibition of full length human N-terminal GST-tagged IRAK4 (1 to 460 residues) expressed in baculovirus expression system using fluorescence labelled IRAK1 peptide substrate at 50 times IC50 by electrophoretic mobility shift assay relative to control
T1 sequence (whole entry): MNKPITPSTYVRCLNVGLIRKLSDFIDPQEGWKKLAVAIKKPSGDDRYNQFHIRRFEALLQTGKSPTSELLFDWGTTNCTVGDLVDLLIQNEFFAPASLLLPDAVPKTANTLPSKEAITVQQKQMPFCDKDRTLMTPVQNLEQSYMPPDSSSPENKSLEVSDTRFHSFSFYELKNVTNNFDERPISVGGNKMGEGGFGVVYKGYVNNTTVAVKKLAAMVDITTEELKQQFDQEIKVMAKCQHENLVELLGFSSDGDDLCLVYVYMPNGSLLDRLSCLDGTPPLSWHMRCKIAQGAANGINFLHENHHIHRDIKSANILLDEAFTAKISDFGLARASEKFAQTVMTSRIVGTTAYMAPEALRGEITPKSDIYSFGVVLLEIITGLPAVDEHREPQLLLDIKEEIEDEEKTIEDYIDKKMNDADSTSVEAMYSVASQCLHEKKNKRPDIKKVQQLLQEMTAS

[2] = biological target: Dual specificity tyrosine-phosphorylation-regulated kinase 1B (Homo sapiens) (UniProt Q9Y463); experiment: Inhibition of full length human N-terminal GST-tagged DYRK1B (1 to 629 residues) expressed in baculovirus expression system using fluorescence labelled DYRKtide-F as substrate at 50 times IC50 by electrophoretic mobility shift assay relative to control
[3] = biological target: T2, Aurora kinase A (Homo sapiens) (UniProt O14965); experiment: Inhibition of full length human N-terminal GST-tagged Aurora A (1 to 403 residues) expressed in baculovirus expression system using fluorescence labelled kemptide as substrate at 50 times IC50 by electrophoretic mobility shift assay relative to control
T2 sequence (whole entry): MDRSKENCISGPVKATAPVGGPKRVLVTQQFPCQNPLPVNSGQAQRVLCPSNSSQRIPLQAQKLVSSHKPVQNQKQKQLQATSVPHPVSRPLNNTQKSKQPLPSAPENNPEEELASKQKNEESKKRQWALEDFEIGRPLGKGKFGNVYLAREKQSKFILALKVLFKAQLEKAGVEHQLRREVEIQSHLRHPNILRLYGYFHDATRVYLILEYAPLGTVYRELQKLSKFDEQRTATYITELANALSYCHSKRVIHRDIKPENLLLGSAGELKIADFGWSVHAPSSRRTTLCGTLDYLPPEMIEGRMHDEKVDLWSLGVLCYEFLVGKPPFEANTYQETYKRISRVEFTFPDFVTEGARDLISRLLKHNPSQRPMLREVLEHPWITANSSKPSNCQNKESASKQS

[4] = biological target: cAMP-dependent protein kinase catalytic subunit alpha (Homo sapiens) (UniProt P17612); experiment: Inhibition of full length human N-terminal GST-tagged PKACalpha (1 to 351 residues) expressed in baculovirus expression system using fluorescence labelled kemptide as substrate at 50 times IC50 by electrophoretic mobility shift assay relative to control
[5] = biological target: Receptor-type tyrosine-protein kinase FLT3 (Homo sapiens) (UniProt P36888); experiment: Inhibition of human N-terminal GST-tagged FLT3 cytoplasmic domain (564 to 993 residues) expressed in baculovirus expression system using fluorescence labelled srctide as substrate at 50 times IC50 by electrophoretic mobility shift assay relative to control
[6] = biological target: Platelet-derived growth factor receptor alpha (Homo sapiens) (UniProt P16234); experiment: Inhibition of human N-terminal GST-tagged PDGFRalpha cytoplasmic domain (550 to 1089 residues) expressed in baculovirus expression system using fluorescence labelled CSKtide as substrate at 50 times IC50 by electrophoretic mobility shift assay relative to control
[7] = biological target: Vascular endothelial growth factor receptor 2 (Homo sapiens) (UniProt P35968); experiment: Inhibition of human N-terminal GST-tagged KDR cytoplasmic domain (790 to 1356 residues) expressed in baculovirus expression system using fluorescence labelled CSKtide as substrate at 50 times IC50 by electrophoretic mobility shift assay relative to control
[8] = biological target: T3, Tyrosine-protein kinase JAK3 (Homo sapiens) (UniProt P52333); experiment: Inhibition of human N-terminal His-tagged JAK3 catalytic domain (795 to 1124 residues) expressed in baculovirus expression system using fluorescence labelled srctide as substrate at 50 times IC50 by electrophoretic mobility shift assay relative to control
T3 sequence (whole entry): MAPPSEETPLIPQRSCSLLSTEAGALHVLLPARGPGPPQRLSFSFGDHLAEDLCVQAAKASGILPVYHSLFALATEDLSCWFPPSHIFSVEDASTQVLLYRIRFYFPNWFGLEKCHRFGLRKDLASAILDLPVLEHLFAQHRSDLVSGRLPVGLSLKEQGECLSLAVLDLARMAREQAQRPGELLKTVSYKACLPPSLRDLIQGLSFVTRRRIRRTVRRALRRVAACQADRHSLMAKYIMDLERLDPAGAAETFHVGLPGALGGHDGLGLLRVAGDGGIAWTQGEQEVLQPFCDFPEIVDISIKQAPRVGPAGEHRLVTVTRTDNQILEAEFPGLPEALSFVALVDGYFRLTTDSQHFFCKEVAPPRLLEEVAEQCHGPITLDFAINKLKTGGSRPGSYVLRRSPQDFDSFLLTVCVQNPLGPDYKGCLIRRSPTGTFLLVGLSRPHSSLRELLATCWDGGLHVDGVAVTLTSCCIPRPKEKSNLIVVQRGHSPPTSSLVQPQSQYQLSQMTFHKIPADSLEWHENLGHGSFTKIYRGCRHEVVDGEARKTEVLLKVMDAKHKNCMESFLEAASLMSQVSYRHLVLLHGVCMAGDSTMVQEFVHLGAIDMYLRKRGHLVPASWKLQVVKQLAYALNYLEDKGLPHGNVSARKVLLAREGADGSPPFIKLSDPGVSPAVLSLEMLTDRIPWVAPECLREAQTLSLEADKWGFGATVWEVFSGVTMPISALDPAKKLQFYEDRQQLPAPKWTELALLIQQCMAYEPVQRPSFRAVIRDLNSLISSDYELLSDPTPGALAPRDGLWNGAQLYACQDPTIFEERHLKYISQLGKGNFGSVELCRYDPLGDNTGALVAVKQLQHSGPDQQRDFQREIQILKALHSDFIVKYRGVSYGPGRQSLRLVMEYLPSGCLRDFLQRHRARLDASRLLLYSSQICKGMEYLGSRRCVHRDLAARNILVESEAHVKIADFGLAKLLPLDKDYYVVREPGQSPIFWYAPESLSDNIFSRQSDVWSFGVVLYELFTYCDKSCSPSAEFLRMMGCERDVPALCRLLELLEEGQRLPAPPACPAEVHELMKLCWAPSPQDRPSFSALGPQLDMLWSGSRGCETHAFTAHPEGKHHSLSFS

[9] = biological target: Epidermal growth factor receptor (Homo sapiens) (UniProt P00533); experiment: Inhibition of human N-terminal GST-tagged EGFR cytoplasmic domain (669 to 1210 residues) expressed in baculovirus expression system using fluorescence labelled srctide as substrate at 50 times IC50 by electrophoretic mobility shift assay relative to control
Sequence of Epidermal growth factor receptor (Homo sapiens) (P00533 whole entry, the tested form may be a part): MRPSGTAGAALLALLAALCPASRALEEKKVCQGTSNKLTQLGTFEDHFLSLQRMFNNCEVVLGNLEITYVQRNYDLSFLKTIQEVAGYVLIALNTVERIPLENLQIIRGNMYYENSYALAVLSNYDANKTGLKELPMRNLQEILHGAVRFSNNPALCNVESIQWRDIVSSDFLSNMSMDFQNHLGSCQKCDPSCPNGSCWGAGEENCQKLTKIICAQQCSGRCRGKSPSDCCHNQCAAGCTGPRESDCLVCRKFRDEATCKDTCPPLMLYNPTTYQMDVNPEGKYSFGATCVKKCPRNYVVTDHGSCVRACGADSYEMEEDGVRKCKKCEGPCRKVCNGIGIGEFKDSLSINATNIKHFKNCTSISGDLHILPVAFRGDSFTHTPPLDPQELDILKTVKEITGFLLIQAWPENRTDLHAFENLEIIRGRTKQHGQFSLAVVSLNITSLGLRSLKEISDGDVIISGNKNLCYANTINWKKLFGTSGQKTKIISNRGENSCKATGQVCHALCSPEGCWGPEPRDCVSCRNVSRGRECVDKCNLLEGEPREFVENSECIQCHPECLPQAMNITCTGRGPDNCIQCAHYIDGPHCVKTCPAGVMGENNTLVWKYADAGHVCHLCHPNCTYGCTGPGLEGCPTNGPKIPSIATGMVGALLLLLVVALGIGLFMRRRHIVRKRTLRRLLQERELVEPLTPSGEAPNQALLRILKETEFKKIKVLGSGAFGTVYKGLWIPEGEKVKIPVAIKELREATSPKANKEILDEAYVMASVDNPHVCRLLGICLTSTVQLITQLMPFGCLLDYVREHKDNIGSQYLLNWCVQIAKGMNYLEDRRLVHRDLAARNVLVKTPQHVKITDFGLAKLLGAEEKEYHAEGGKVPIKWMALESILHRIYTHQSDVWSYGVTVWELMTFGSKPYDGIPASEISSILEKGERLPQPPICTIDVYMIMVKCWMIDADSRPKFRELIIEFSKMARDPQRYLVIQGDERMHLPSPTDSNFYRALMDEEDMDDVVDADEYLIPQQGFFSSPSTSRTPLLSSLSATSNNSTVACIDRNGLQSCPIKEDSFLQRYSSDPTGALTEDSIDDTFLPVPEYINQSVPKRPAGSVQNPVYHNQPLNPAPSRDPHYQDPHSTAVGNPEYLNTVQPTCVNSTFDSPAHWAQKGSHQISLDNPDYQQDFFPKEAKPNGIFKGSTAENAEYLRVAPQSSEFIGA

Sequence of Platelet-derived growth factor receptor alpha (Homo sapiens) (P16234 whole entry, the tested form may be a part): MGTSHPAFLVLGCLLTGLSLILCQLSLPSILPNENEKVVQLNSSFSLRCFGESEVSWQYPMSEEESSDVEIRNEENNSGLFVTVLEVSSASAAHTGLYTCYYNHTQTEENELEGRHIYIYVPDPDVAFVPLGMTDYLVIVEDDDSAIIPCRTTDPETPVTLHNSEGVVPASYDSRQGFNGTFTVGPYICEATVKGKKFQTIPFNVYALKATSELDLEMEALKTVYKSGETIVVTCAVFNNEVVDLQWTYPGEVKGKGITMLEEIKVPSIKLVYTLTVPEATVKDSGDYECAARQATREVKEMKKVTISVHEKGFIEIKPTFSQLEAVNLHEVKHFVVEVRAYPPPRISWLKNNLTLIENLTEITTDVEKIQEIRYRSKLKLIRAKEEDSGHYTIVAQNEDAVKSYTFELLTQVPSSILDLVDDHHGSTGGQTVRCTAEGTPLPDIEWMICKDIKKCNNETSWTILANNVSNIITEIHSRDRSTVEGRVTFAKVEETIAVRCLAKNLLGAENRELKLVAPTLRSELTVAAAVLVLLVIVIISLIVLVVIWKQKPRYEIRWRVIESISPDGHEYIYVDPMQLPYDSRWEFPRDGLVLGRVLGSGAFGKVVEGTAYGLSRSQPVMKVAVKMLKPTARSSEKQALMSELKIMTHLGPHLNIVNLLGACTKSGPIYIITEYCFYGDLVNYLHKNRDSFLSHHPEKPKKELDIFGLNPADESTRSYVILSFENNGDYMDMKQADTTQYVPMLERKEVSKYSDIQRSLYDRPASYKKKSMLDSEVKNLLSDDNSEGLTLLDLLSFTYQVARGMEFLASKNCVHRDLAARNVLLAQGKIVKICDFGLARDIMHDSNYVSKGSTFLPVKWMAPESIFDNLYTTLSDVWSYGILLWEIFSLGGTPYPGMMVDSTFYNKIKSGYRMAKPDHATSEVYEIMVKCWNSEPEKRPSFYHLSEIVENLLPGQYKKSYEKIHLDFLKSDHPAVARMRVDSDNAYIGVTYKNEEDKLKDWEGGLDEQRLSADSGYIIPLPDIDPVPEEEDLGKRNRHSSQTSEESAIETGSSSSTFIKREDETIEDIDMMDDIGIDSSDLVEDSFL
Sequence of Dual specificity tyrosine-phosphorylation-regulated kinase 1B (Homo sapiens) (Q9Y463 whole entry, looked up, the tested form may be a part): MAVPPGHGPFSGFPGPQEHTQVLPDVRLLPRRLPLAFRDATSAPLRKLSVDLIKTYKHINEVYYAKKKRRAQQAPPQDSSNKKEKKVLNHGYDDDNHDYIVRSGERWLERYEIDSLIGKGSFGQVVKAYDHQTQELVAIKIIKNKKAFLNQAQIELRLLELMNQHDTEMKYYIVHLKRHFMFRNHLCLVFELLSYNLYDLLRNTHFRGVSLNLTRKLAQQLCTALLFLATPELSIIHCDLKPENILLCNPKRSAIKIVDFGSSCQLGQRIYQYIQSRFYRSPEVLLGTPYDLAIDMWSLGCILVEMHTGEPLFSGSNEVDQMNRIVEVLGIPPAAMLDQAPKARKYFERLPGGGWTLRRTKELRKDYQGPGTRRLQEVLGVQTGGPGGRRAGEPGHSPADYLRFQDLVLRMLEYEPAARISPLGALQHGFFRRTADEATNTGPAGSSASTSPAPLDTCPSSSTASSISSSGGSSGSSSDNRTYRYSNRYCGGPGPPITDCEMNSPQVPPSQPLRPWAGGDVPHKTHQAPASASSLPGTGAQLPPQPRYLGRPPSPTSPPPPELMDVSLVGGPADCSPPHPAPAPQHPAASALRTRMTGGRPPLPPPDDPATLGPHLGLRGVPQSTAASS
Sequence of Receptor-type tyrosine-protein kinase FLT3 (Homo sapiens) (P36888 whole entry, the tested form may be a part): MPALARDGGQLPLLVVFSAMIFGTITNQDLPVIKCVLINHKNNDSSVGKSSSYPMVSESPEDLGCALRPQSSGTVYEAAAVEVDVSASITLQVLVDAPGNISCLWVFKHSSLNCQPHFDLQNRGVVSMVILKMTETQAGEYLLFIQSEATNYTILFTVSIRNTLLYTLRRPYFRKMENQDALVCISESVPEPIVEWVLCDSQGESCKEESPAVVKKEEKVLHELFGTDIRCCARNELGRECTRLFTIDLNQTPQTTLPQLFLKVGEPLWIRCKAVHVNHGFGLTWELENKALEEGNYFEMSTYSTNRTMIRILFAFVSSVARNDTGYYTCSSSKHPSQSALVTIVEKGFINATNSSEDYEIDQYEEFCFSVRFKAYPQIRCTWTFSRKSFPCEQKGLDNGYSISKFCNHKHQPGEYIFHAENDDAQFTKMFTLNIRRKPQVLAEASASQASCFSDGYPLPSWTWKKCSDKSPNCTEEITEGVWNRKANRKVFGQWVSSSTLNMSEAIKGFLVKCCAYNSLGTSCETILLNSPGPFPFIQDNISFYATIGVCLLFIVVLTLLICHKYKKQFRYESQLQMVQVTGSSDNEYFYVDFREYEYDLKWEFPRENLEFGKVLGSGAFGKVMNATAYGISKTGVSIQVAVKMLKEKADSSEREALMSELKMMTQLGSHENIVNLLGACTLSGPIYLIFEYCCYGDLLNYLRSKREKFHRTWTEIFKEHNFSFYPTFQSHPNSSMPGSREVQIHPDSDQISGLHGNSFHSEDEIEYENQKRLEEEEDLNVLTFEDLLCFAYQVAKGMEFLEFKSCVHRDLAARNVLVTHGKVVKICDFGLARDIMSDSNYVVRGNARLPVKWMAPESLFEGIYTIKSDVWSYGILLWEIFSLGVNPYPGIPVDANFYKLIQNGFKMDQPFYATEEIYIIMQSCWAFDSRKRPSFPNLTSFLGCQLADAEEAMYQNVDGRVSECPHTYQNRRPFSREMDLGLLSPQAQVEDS

SMILES	inhibition [1]	inhibition [2]	inhibition [3]	inhibition [4]	inhibition [5]	inhibition [6]	inhibition [7]	inhibition [8]	inhibition [9]
O=C(Nc1ccc(CN2CCN(c3ccccc3)CC2)cc1)c1n[nH]c2ccccc12	-1.9%	12.7%	6.1%	-1.4%	100%	9.8%	15.8%	9%	1.7%
O=C(Nc1ccccc1)c1n[nH]c2ccccc12	19.7%	53.6%	45.2%	3.1%	96.7%	26.3%	44.2%	51.9%	9.1%
O=C(Nc1ccc(C(=O)N2CCN(c3ccccc3)CC2)cc1)c1n[nH]c2ccccc12	2.6%	29.4%	31.3%	2.7%	99.7%	47.2%	34.2%	26.4%	0.1%
